Several values for one entry are separate records, joined by “and”; a condition that tells them apart may be missing. Equal values may be shown once. Toxic doses and inconclusive results are not listed. Rule as the data show it: active = T/C of 150% or more; inactive = T/C below 125%.
Tested on: L1210 leukemia ip in BDF1 mice, survival T/C
Experiment: NCI In Vivo Anticancer Drug Screen. Data for tumor model L1210 Leukemia (intraperitoneal) in B6D2F1 (BDF1) mice
Conditions: endpoint: mean survival time, higher = longer survival
Procedure, shortened: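 Antitumor effect is assessed in tumor-bearing animals. Survival in the compound arm is compared with a vehicle-dosed control arm and expressed as their quotient.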

[1] = dose: 100.0 mg/kg/injection, schedule: Q04DX003 (ip), vehicle: saline with Tween-80
[2] = dose: 200.0 mg/kg/injection, schedule: Q04DX003 (ip), vehicle: saline with Tween-80
[3] = dose: 400.0 mg/kg/injection, schedule: Q04DX003 (ip), vehicle: saline with Tween-80
[4] = dose: 100.0 mg/kg/injection, schedule: Q01DX009 (ip), vehicle: saline with Tween-80
[5] = dose: 400.0 mg/kg/injection, schedule: Q01DX009 (ip), vehicle: saline with Tween-80
[6] = dose: 100.0 mg/kg/injection, schedule: Q01DX009 (ip), vehicle: Klucel (hydroxypropylcellulose) (HPC)
[7] = dose: 200.0 mg/kg/injection, schedule: Q01DX009 (ip), vehicle: Klucel (hydroxypropylcellulose) (HPC)
[8] = dose: 400.0 mg/kg/injection, schedule: Q01DX009 (ip), vehicle: Klucel (hydroxypropylcellulose) (HPC)
[9] = dose: 50.0 mg/kg/injection, schedule: Q01DX009 (ip), vehicle: Klucel (hydroxypropylcellulose) (HPC)
[10] = dose: 100.0 mg/kg/injection, schedule: Q04DX002 (ip), vehicle: Klucel (hydroxypropylcellulose) (HPC)
[11] = dose: 200.0 mg/kg/injection, schedule: Q04DX002 (ip), vehicle: Klucel (hydroxypropylcellulose) (HPC)
[12] = dose: 400.0 mg/kg/injection, schedule: Q04DX002 (ip), vehicle: Klucel (hydroxypropylcellulose) (HPC)
[13] = dose: 25.0 mg/kg/injection, schedule: Q04DX003 (ip), vehicle: Klucel (hydroxypropylcellulose) (HPC)
[14] = dose: 50.0 mg/kg/injection, schedule: Q04DX003 (ip), vehicle: Klucel (hydroxypropylcellulose) (HPC)
[15] = dose: 100.0 mg/kg/injection, schedule: Q04DX003 (ip), vehicle: Klucel (hydroxypropylcellulose) (HPC)
[16] = dose: 200.0 mg/kg/injection, schedule: Q04DX003 (ip), vehicle: Klucel (hydroxypropylcellulose) (HPC)
[17] = dose: 100.0 mg/kg/injection, schedule: Q04DX002 (ip), vehicle: saline with Tween-80
[18] = dose: 200.0 mg/kg/injection, schedule: Q04DX002 (ip), vehicle: saline with Tween-80
[19] = dose: 400.0 mg/kg/injection, schedule: Q04DX002 (ip), vehicle: saline with Tween-80
[20] = dose: 100.0 mg/kg/injection, schedule: Q01DX001 (ip), vehicle: saline
[21] = dose: 200.0 mg/kg/injection, schedule: Q01DX001 (ip), vehicle: saline
[22] = dose: 400.0 mg/kg/injection, schedule: Q01DX001 (ip), vehicle: saline
[23] = dose: 400.0 mg/kg/injection, schedule: Q04DX003 (ip), vehicle: Klucel (hydroxypropylcellulose) (HPC)

Measured: T/C

CCCc1cc(C)cc2nc(-c3ccccc3)oc12
inactive: [1] 101 % of control | [2] 95 % of control | [3] 89 % of control

O=C1NC(=O)C(c2ccccn2)N1 (configuration not stated)
inactive: [4] 91 % of control | dose: 200.0 mg/kg/injection, schedule: Q01DX009 (ip), vehicle: saline with Tween-80 91 % of control | [5] 94 % of control

O=c1c2ccccc2nc(-c2ccccc2)n1/N=C/c1ccco1
inactive: [6] 93 % of control | [7] 94 % of control | [8] 96 % of control

CCN(CC)c1ccc(Cc2cc(O)c3c(c2O)C(=O)c2ccccc2C3=O)cc1
inactive: [9] 89 % of control | [6] 104 % of control | [10] 89 % of control | [11] 89 % of control | [12] 96 % of control

CCOc1ccc(-n2c(=O)c(N=Nc3ccc(Cl)cc3)c(O)n(-c3ccccc3OC)c2=S)cc1
inactive: dose: 37.5 mg/kg/injection, schedule: Q01DX001 (ip), vehicle: Klucel (hydroxypropylcellulose) (HPC) 92 % of control | dose: 75.0 mg/kg/injection, schedule: Q01DX001 (ip), vehicle: Klucel (hydroxypropylcellulose) (HPC) 113 % of control | dose: 150.0 mg/kg/injection, schedule: Q01DX001 (ip), vehicle: Klucel (hydroxypropylcellulose) (HPC) 103 % of control

Nc1nc(N)c(-c2ccc(Cl)c(Cl)c2)c(CBr)n1
inactive: dose: 1.56 mg/kg/injection, schedule: Q01DX009 (ip), vehicle: saline with Tween-80 101 % of control | dose: 3.13 mg/kg/injection, schedule: Q01DX009 (ip), vehicle: saline with Tween-80 101 % of control and 92 % of control | dose: 6.25 mg/kg/injection, schedule: Q01DX009 (ip), vehicle: saline with Tween-80 102 % of control | dose: 12.5 mg/kg/injection, schedule: Q01DX009 (ip), vehicle: saline with Tween-80 99 % of control and 101 % of control | dose: 12.5 mg/kg/injection, schedule: Q04DX003 (ip), vehicle: Klucel (hydroxypropylcellulose) (HPC) 90 % of control | [13] 113 % of control | [14] 87 % of control | [15] 87 % of control

CSc1ccc([N+](=O)[O-])cc1
inactive: [15] 104 % of control | [16] 100 % of control

O=C(NCc1cnccn1)Oc1ccc([N+](=O)[O-])cc1
inactive: dose: 50.0 mg/kg/injection, schedule: Q01DX009 (ip), vehicle: saline with Tween-80 93 % of control | [4] 103 % of control | [5] 98 % of control

CN(C)Cc1c(CC(O)(c2ccccc2)c2ccccc2)ccc2ccccc12
inactive: dose: 50.0 mg/kg/injection, schedule: Q01DX001 (ip), vehicle: carboxymethylcellulose (CMC) 96 % of control | dose: 100.0 mg/kg/injection, schedule: Q01DX001 (ip), vehicle: carboxymethylcellulose (CMC) 100 % of control | dose: 200.0 mg/kg/injection, schedule: Q01DX001 (ip), vehicle: carboxymethylcellulose (CMC) 96 % of control | dose: 400.0 mg/kg/injection, schedule: Q01DX001 (ip), vehicle: carboxymethylcellulose (CMC) 105 % of control

Nc1nc(N)c(C=Nc2ccc(Br)cc2)c(Nc2ccc(Br)cc2)n1
inactive: dose: 50.0 mg/kg/injection, schedule: Q01DX001 (ip), vehicle: alcohol 100 % of control

NC(=O)Nc1cccc(C(F)(F)F)c1
inactive: dose: 75.0 mg/kg/injection, schedule: Q01DX001 (ip), vehicle: carboxymethylcellulose (CMC) 98 % of control | dose: 150.0 mg/kg/injection, schedule: Q01DX001 (ip), vehicle: carboxymethylcellulose (CMC) 102 % of control | dose: 300.0 mg/kg/injection, schedule: Q01DX001 (ip), vehicle: carboxymethylcellulose (CMC) 103 % of control

O=C1OC(c2ccccc2)=NC1(c1ccccc1)C1(c2ccccc2)N=C(c2ccccc2)OC1=O (configuration not stated)
inactive: [1] 88 % of control | [2] 93 % of control | [3] 86 % of control

CCc1cccc(CC)c1N=Cc1ccccc1
inactive: [6] 97 % of control | [7] 105 % of control | [8] 97 % of control

CC(=O)Nc1ccccc1I
inactive: [6] 104 % of control | [7] 96 % of control | [8] 95 % of control

O=C1c2cscc2C(O)(c2ccccc2)c2c(Cl)sc(Cl)c21 (configuration not stated)
inactive: dose: 100.0 mg/kg/injection, schedule: Q01DX001 (ip), vehicle: saline with Tween-80 88 % of control | dose: 200.0 mg/kg/injection, schedule: Q01DX001 (ip), vehicle: saline with Tween-80 88 % of control | dose: 400.0 mg/kg/injection, schedule: Q01DX001 (ip), vehicle: saline with Tween-80 88 % of control

Cc1cc(=O)c(CO)n[nH]1
inactive: dose: 100.0 mg/kg/injection, schedule: Q01DX009 (ip), vehicle: saline 103 % of control | dose: 100.0 mg/kg/injection, schedule: Q04DX003 (ip), vehicle: saline 101 % of control | dose: 200.0 mg/kg/injection, schedule: Q01DX009 (ip), vehicle: saline 95 % of control | dose: 200.0 mg/kg/injection, schedule: Q04DX003 (ip), vehicle: saline 106 % of control | dose: 400.0 mg/kg/injection, schedule: Q01DX009 (ip), vehicle: saline 98 % of control | dose: 400.0 mg/kg/injection, schedule: Q04DX003 (ip), vehicle: saline 103 % of control

C1CC2CC1CC1C3CC4CCC(C4)C3OC21 (configuration not stated)
inactive: dose: 50.0 mg/kg/injection, schedule: Q04DX002 (ip), vehicle: saline with Tween-80 98 % of control | [17] 102 % of control | [18] 91 % of control | [19] 95 % of control

OCC1OC(Sc2ncc3cnccn23)C(O)C(O)C1O (configuration not stated)
inactive: dose: 100.0 mg/kg/injection, schedule: Q01DX005 (ip), vehicle: saline 100 % of control | dose: 200.0 mg/kg/injection, schedule: Q01DX005 (ip), vehicle: saline 100 % of control

Cl/C=C/CSc1ccccc1
inactive: [20] 100 % of control | [21] 103 % of control | [22] 100 % of control

CCC1OC2(C)CCCC1O2 (configuration not stated)
inactive: dose: 25.0 mg/kg/injection, schedule: Q01DX001 (ip), vehicle: saline sonified 111 % of control | dose: 50.0 mg/kg/injection, schedule: Q01DX001 (ip), vehicle: saline sonified 101 % of control | dose: 100.0 mg/kg/injection, schedule: Q01DX001 (ip), vehicle: saline sonified 122 % of control

NC(=O)c1ccccc1NC(=O)Nc1cccc(C(F)(F)F)c1
inactive: [6] 86 % of control | [10] 102 % of control | [7] 89 % of control | [11] 105 % of control | [8] 93 % of control | [12] 108 % of control

CC(C)(C)c1ccc(S(=O)(=O)c2ccc(C(C)(C)C)cc2)cc1
inactive: [15] 94 % of control | [16] 105 % of control | [23] 91 % of control

COc1cc(/C=C2\CCC/C(=C\c3ccc(O)c(OC)c3)C2=O)ccc1O
inactive: [15] 93 % of control | [16] 87 % of control

O=C1CC(N2CC2)C(=O)N1c1ccccc1 (configuration not stated)
inactive: [6] 104 % of control | [15] 105 % of control | [7] 92 % of control | [16] 113 % of control | [23] 88 % of control

O=C1OC(/C=C/c2ccccc2)=NC/1=C\c1ccccc1
inactive: [17] 92 % of control | [18] 95 % of control | [19] 92 % of control

O=C(O)c1cccnc1
inactive: dose: 25.0 mg/kg/injection, schedule: Q01DX009 (ip), vehicle: Klucel (hydroxypropylcellulose) (HPC) 103 % of control | [13] 91 % of control | [9] 100 % of control | [14] 89 % of control | [6] 96 % of control | [15] 100 % of control | [7] 95 % of control | [16] 91 % of control | [23] 107 % of control

Cc1cnc(C#N)c(C#N)n1
inactive: dose: 12.5 mg/kg/injection, schedule: Q04DX002 (ip), vehicle: Klucel (hydroxypropylcellulose) (HPC) 100 % of control | dose: 25.0 mg/kg/injection, schedule: Q04DX002 (ip), vehicle: Klucel (hydroxypropylcellulose) (HPC) 96 % of control | dose: 50.0 mg/kg/injection, schedule: Q04DX002 (ip), vehicle: Klucel (hydroxypropylcellulose) (HPC) 96 % of control

NCCCC(N)C(=O)O (configuration not stated)
inactive: [20] 98 % of control | [21] 102 % of control | [22] 106 % of control

Reference: PubChem BioAssay AID248 (DTP/NCI, 2004)
